Experimental findings from patent US11554123B2, “Compositions and methods for reactivating latent HIV-1 infections” (Saint Joseph's University, priority 2017, dated 2023) are described below.

Molecules are shown by their SMILES. Where “and” joins values, the source holds several entries; their conditions need not be identical. Identical values can stand only once. Entries after “also recorded” stand apart in the source; their conditions may differ.

Common to all, as to format: cell-based
The test system of assay [1] is acetylated histone 3 at lysine 9 (H3K9). Briefly: NUCLEO-M imaging of acetylated H3K9 in isolated nuclei. The settings on record: Ro5-3335 and SAHA, FIG. 3A. How it is done: Transcriptionally competent nuclei were isolated from TZM-bl cells by chemical lysis and stored following manufacturer's recommendations (Nuclei Isolation Kit: Nuclei EZ Prep, Sigma-Aldrich, Nuc-101). Nuclei were stained for 1 hour on ice in 5% FBS/PBS solution containing primary antibodies. Nuclei were washed twice in 5% FBS/PBS and stained for 1 hour on ice with appropriate secondary antibodies conjugated with fluorescent dyes. Nuclei were finally washed twice in 5% FBS/PBS and resuspended in the storage buffer provided by the kit (Nuclei Isolation Kit: Nuclei EZ Prep, Sigma-Aldrich, Nuc-101).
Isolated nuclei and TZM-bl cells seeded on a chambered coverglass (NUNC® LAB-TEK® Chambered Coverglass, Thermo Fisher) were imaged with a Zeiss AXIOVERT® microscope with a Zeiss alpha PLAN-FLUAR® 100×, 1.45 N.A., oil objective and a spinning disk confocal scan head (Yokogawa CSU-X1). A 488 nm laser source with 488-25 nm, 617-73 nm and 692-40 nm emission filters were used for the illumination of Alexa Fluor® 488 dye (Thermo Fisher) or SYTO® RNA SELECT® Green Fluorescent cell Stain (Thermo Fisher), and PerCP-Cy5.5 (BD Biosciences) respectively. A 561 nm laser source with 568-25 nm emission filters was used for illumination of ALEXA FLUOR® 555 dye (Thermo Fisher). Digital images were captured sequentially by a high-speed EM-CCD camera with 100 ms exposure time (Photometrics EVOLVE® 512). […]

The next assay concerns CBP/P300. Put plainly: ChIP for CBP/P300 at integrated HIV-1 LTR in TZMbl cells. The settings on record: addition of 50 μM Ro5-3335 or 10 μM Alprazolam, 48 h, FIG. 3D. How it is done:
(§1) TZMbl cells were cultured with benzodiazepines for 48 hours before chromatin immunoprecipitation analysis. Following treatment, cells were processed for chromatin immunoprecipitation using the Pierce Agarose ChIP Kit (Fisher Scientific) using commercially available antibodies against histone H3 lysine 9 acetylation, STATS, and CBP/P300. Degree of occupancy at the integrated HIV-1 LTR was determined by qPCR using HIV-1 LTR specific primers run on a BioRad CFX384 qPCR machine using Sybr Green methodology.
Therefore, ChIP was performed for STATS to determine if benzodiazepine treatment might increase the recruitment of STATS above SAHA treatment (FIG. 3C). All three benzodiazepines were capable of driving recruitment of STATS to the promoter, and further recruitment was seen when used in combination with SAHA. STATS is capable of recruiting the histone acetyl transferase CBP/P300 that acetylates histone 3 at lysine 27, a residue that is not affected by SAHA. […] Addition of both Ro5-3335 and Alprazolam induced recruitment of CBP/P300 to the HIV-1 LTR (by 3 and 7 fold respectively).

For assay [2], the system named is H3K9ac at the integrated HIV-1 long terminal repeat (LTR). Put plainly: ChIP for H3K9ac at integrated HIV-1 LTR in TZMbl cells. The settings on record: 50 μM Ro5-3335, 10 μM Alprazolam or 10 μM Clonazepam with 5 μM SAHA, 48 h. The procedure: as §1
In order to test the changes driven by these compounds, chromatin immunoprecipitation (ChIP) assays were performed to examine the presence of various proteins and modifications at the integrated HIV-1 long terminal repeat (LTR). TZMbl cells were treated for 48 hours with 50 μM Ro5-3335, 10 μM Alprazolam and 10 μM Clonazepam with or without 5 μM SAHA Acetylation of histone 3 at lysine 9 (H3K9ac) was first examined (FIG. 3B). […] None of the benzodiazepines were able to alter H3K9ac when used alone.

A further assay has as its target T1, HIV-1 Tat (Human immunodeficiency virus type 1 group M subtype B, UniProt P04608).
T1 construct: expressed in transfected cells; host or cells: TZMbl cells
The settings on record: TZMbl cells transfected with Tat plasmid, 24 h treatment, FIG. 3E.

In another assay the test system is RUNX1 responsive genes. Put plainly: RUNX responsive gene expression (qPCR) in PBMCs from HIV-1 patients. The settings on record: PBMCs of three HIV-1 patients, 48 h. How it is done:
(§2) To evaluate the ability of Alprazolam to reactivate latent cells from patients we obtained PBMCs from two HIV-1 patients who had been suppressed on therapy for greater than 6 months. 10×10^6 PBMCs were divided between three conditions: DMSO control, 50 μM Ro5-3335 and 10 μm Alprazolam. PBMCs were cultured in RPMI with 10% FBS and the given drugs for twenty-four hours. RNA was extracted from the cells and used for RTqPCR to detect HIV-1 Gag mRNA. RNA was extracted using Trizol reagent (Invitrogen) following manufacturer's protocol. Following reverse transcription, the samples were diluted 1:50, and 2.5 microliters were used for quantitative PCR in a BioRad CFX384 qPCR machine. All mRNA analyses were normalized to GAPDH. Nucleic acid amplification was tracked by SYBR Green method.
Next, expression of several RUNX responsive genes in PBMCs in response to Ro5-3335 and Alprazolam was examined. Samples from three HIV-1 patients were treated with Alprazolam or Ro5-3335 for 48 hours. RNA was harvested using Trizol and cDNA was synthesized using RT reaction. qPCR was performed using primers for seven known RUNX1 responsive genes: APOBEC3C, APOBEC3G, Tbet, RUNX1 d, IL-2, IL7R and STAH (FIG. 5).
(In qPCR the cycle at which signal appears reflects the starting amount.)

A further assay has as its system IL-17 promoter. Briefly: IL-17 promoter luciferase reporter assay in 293T cells. The settings on record: all three conditions: alone, with SAHA, with RUNX1 overexpression.
The next assay has as its system HIV-1 Gag mRNA. Briefly: HIV-1 Gag mRNA (RTqPCR) in ex vivo treated PBMCs from HIV-1 patients. The settings on record: 50 μM Ro5-3335 alone, 24 h, two patients, versus DMSO control. How it is done: as §2
In order to evaluate the ability of Alprazolam to reactivate latent cells from patients, PBMCs were obtained from two HIV-1 patients who had been suppressed on therapy for greater than 6 months. 10×10^6 PBMCs were divided between three conditions: DMSO control, 50 μM Ro5-3335 and 10 μm Alprazolam. PBMCs were cultured in RPMI with 10% FBS and the given drugs for twenty-four hours. RNA was extracted from the cells and used for RTqPCR to detected HIV-1 Gag mRNA (FIG. 6). […] Treatment with Alprazolam produced detectable reactivation of HIV-1 transcripts.

Assay [3] deals with latent HIV-1 in JLat10.6 cell line model of T-cell latency. The settings on record: Ro5-3335 by itself, without SAHA.

T1 sequence (P04608 whole entry): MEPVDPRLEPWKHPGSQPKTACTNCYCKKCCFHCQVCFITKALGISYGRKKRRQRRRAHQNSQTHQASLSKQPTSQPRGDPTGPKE

On to `O=C1CN=C(c2ccc[nH]2)c2cc(Cl)ccc2N1` [Ro5-3335], for which the “acetylated H3K9 in the nuclei (in words)” value in assay [1] is recorded as “further increased the acetylation; also recorded: increase in acetylated histone 3 at lysine 9”. For the same molecule, the “recruitment of CBP/P300 to the HIV-1 LTR” value in the assay with CBP/P300 was found to be 3 fold. Further, in assay [2], the “H3K9ac at the HIV-1 LTR versus SAHA alone (in words)” value is reported as “potentiation was not seen”. The “luciferase expression driven by Tat (in words)” value at HIV-1 Tat is listed as “significantly suppressed luciferase expression; also recorded: significant suppression of Tat”. Also, the “expression of seven selected RUNX responsive genes (in words)” value with RUNX1 responsive genes is “significantly altered the expression of five of the selected RUNX responsive genes”. Also, the “IL-17 promoter activity (in words)” value with IL-17 promoter was “inhibited IL-17 promoter in a dose dependent fashion”. The “increase in HIV-1 transcripts (Gag mRNA)” value in the assay with HIV-1 Gag mRNA was 1.5 fold and 1.2 fold. For the same molecule, the “activation of latent virus (in words)” value in assay [3] was “did not activate the virus by itself”.
